Reference: the NIST ThermoML archive (doi:10.1021/je800110r)
“And” between values parts separate entries of the source, which are not always exact repeats. Equal values may be shown once.

Conditions: 323.15 K, Liquid, Vibrating tube method

CCCCCCCCCC [decane]
Conditions | mass density
979 kPa | 707.8 kg/m3
1136 kPa | 707.9 kg/m3
1175 kPa | 707.9 kg/m3
2516 kPa | 709.2 kg/m3
2603 kPa | 709.2 kg/m3
2658 kPa | 709.3 kg/m3
2678 kPa | 709.4 kg/m3
2691 kPa | 709.3 kg/m3
2692 kPa | 709.2 kg/m3 and 709.4 kg/m3
2703 kPa | 709.4 kg/m3
2822 kPa | 709.4 kg/m3
2861 kPa | 709.4 kg/m3
2878 kPa | 709.5 kg/m3
2894 kPa | 709.6 kg/m3
2913 kPa | 709.5 kg/m3
2936 kPa | 709.5 kg/m3
2951 kPa | 709.6 kg/m3
2967 kPa | 709.5 kg/m3
2987 kPa | 709.6 kg/m3
3000 kPa | 709.7 kg/m3
3022 kPa | 709.6 kg/m3
3044 kPa | 709.5 kg/m3
3064 kPa | 709.6 kg/m3
3081 kPa | 709.7 kg/m3
4273 kPa | 710.8 kg/m3
4294 kPa | 710.8 kg/m3
4322 kPa | 710.8 kg/m3
4342 kPa | 710.9 kg/m3
4361 kPa | 710.8 kg/m3
4382 kPa | 710.8 kg/m3
4423 kPa | 710.9 kg/m3
4487 kPa | 711 kg/m3
4606 kPa | 711 kg/m3
4625 kPa | 711.1 kg/m3
4647 kPa | 711.1 kg/m3
4668 kPa | 711.2 kg/m3
4685 kPa | 711.2 kg/m3
4861 kPa | 711.3 kg/m3
4889 kPa | 711.4 kg/m3
4922 kPa | 711.3 kg/m3
5651 kPa | 712 kg/m3
5805 kPa | 712.2 kg/m3
5822 kPa | 712.1 kg/m3
5843 kPa | 712.2 kg/m3
5857 kPa | 712.3 kg/m3
5874 kPa | 712.2 kg/m3
5887 kPa | 712.2 kg/m3
6263 kPa | 712.6 kg/m3
6285 kPa | 712.6 kg/m3
6300 kPa | 712.6 kg/m3
6321 kPa | 712.5 kg/m3
6341 kPa | 712.7 kg/m3
6363 kPa | 712.7 kg/m3
6380 kPa | 712.6 kg/m3
6398 kPa | 712.7 kg/m3
6436 kPa | 712.7 kg/m3
6474 kPa | 712.7 kg/m3
6492 kPa | 712.8 kg/m3
6514 kPa | 712.7 kg/m3
6635 kPa | 712.8 kg/m3
6654 kPa | 712.9 kg/m3
6678 kPa | 712.9 kg/m3
6703 kPa | 713 kg/m3
6916 kPa | 713 kg/m3
6934 kPa | 713.1 kg/m3
6961 kPa | 713.2 kg/m3
6979 kPa | 713.1 kg/m3
7007 kPa | 713.1 kg/m3
7029 kPa | 713.3 kg/m3
7057 kPa | 713.3 kg/m3
7082 kPa | 713.3 kg/m3
7102 kPa | 713.2 kg/m3
7118 kPa | 713.3 kg/m3
7137 kPa | 713.4 kg/m3
7158 kPa | 713.4 kg/m3
7174 kPa | 713.4 kg/m3
7190 kPa | 713.4 kg/m3
7203 kPa | 713.3 kg/m3
7224 kPa | 713.3 kg/m3
7238 kPa | 713.4 kg/m3
7254 kPa | 713.5 kg/m3
7271 kPa | 713.5 kg/m3
7304 kPa | 713.4 kg/m3
7318 kPa | 713.5 kg/m3
7339 kPa | 713.4 kg/m3
7354 kPa | 713.4 kg/m3
7368 kPa | 713.5 kg/m3
8395 kPa | 714.3 kg/m3
8425 kPa | 714.4 kg/m3
8563 kPa | 714.5 kg/m3
8605 kPa | 714.6 kg/m3
9325 kPa | 715.2 kg/m3
9451 kPa | 715.3 kg/m3
10321 kPa | 715.9 kg/m3
10344 kPa | 716 kg/m3
10548 kPa | 716.3 kg/m3
11286 kPa | 716.8 kg/m3
11307 kPa | 716.8 kg/m3
11331 kPa | 716.8 kg/m3
11359 kPa | 716.8 kg/m3
11377 kPa | 716.9 kg/m3
11401 kPa | 717 kg/m3
11467 kPa | 717 kg/m3
12096 kPa | 717.5 kg/m3
12122 kPa | 717.5 kg/m3
12147 kPa | 717.6 kg/m3
12173 kPa | 717.6 kg/m3
12190 kPa | 717.7 kg/m3
12213 kPa | 717.5 kg/m3
12230 kPa | 717.6 kg/m3
12257 kPa | 717.6 kg/m3
12397 kPa | 717.7 kg/m3
12417 kPa | 717.7 kg/m3
12435 kPa | 717.8 kg/m3
12457 kPa | 717.8 kg/m3
12472 kPa | 717.8 kg/m3
12495 kPa | 717.8 kg/m3
12510 kPa | 717.9 kg/m3
12528 kPa | 717.8 kg/m3
12854 kPa | 718.2 kg/m3
12869 kPa | 718.2 kg/m3
12887 kPa | 718.1 kg/m3
12906 kPa | 718.2 kg/m3
12919 kPa | 718.1 kg/m3
12964 kPa | 718.2 kg/m3
12977 kPa | 718.3 kg/m3
12991 kPa | 718.2 kg/m3
13012 kPa | 718.2 kg/m3
13060 kPa | 718.2 kg/m3
13843 kPa | 718.9 kg/m3
13863 kPa | 718.9 kg/m3
13877 kPa | 718.9 kg/m3
13892 kPa | 719 kg/m3
13909 kPa | 719 kg/m3
13924 kPa | 719 kg/m3
13946 kPa | 719 kg/m3
